A short description of one data set: physchem. The procedure:
(§1) pKa Determination. A solution [1 g in 12 mls of deuterium oxide 100% atom D] of the compound under investigation was gradually acidified by drop-wise addition of a solution of DC1 to D2 O (20% wt/wt, 99.5% atom D). The pD values were measured on a Corning pH meter. For each pD value, a sample (0.8 mls) was analyzed by ^1 H-NMR on a Varian Unity 300 MHz spectrometer using sodium 3(trimethylsilyl)-2,2,3,3-d4 -propionate (TSP) as internal reference. Protonation of the pyrrolidine- and pyridine-N atoms was followed by observing the variation in chemical shift of the N-1'-methyl and 2'-proton signals from pO 8.8 to pD 3.0. A titration curve of pD vs chemical shift was constructed to determine the pKa values of pyrrolidino-N atom and/or the pyridine-N atom.
as §1, with “Computational Chemistry.” for “pKa Determination.”, “3-(trimethylsilyl)-2,2,3,3-d4” for “3(trimethylsilyl)-2,2,3,3-d4”, “N-1'methyl” for “N-1'-methyl”, “pD” for “pO”

In data set [1] the test system is S(-)nicotine (10 μM)-evoked [^3 H]DA release from rat striatal slices. Format: cell-based. The procedure:
(§2) Biological Methods. Male Spragua-Dawley rats (150-200 g) were obtained from Harlan Laboratories (Indianapolis, Ind.) and were housed two per cage with free access to food and water in the Division of Lab Animal Resources at the College of Pharmacy at the University of Kentucky. Experimental protocols involving the animals were approved by the Institutional Animal Care and Use Committee at the University of Kentucky.
(§3) [^3 H]DA Release Assay. Rat striatal slices (500 μm thickness, 6-8 mg wet weight) were obtained as previously described (Dwoskin and Zahniser, 1986). Slices were incubated for 30 min in Krebs' buffer ([…]; 118 NaCl, 4.7 KCl, 1.2 MgCl2, 1.0 NaH2 PO4, 1.3 CaCl2, […], 11.1 glucose, 25 NaHCO3, 0.11 L-ascorbic acid nd 0.004 disodium EDTA; pH 7.4 and saturated with 95% O2 /5% CO2) in a metabolic shaker at 34°. Slices were rinsed with 15 ml of fresh buffer and incubated for an additional 30 min in fresh buffer containing 0.1 μM [^3 H]dopamine (6 slices/3 ml). Subsequently, slices were rinsed with 15 ml of fresh buffer and transferred to a glass superfusion chamber. Slices were superfused (1.0 ml/min) for 60 min with Krebs' buffer containing nomifensine (10 μm) and pargyline (10 μm) and maintained at 34° C., pH 7.4 with continual aeration (95% O2 /5% CO2). Two 5-min samples (5 ml) were collected to determine basal outflow of [^3 H]DA. N-Substituted nicotine analogues were added to the superfusion buffer after the collection of the second sample and remained in the buffer until 12 consecutive 5-min samples were collected. […] At the end of the experiment each slice was solubilized and the [^3 H] content of the tissue determined.
(§4) Radioactivity in the superfusate and tissue samples was determined by liquid scintillation spectroscopy. Fractional release for each superfusate sample was calculated by dividing the total tritium collected in each sample by the total tritium present in the tissue at the time of sample collection. Basal [^3 H]out flow was calculated from the average of the tritium collected in the two 5-min samples just before addition of the N-substituted nicotine analogue. The sums of the increase in collected tritium resulting from either exposure to the test compound or exposure to nicotine in the absence and presence of the test compound equaled total [^3 H]overflow. [^3 H]overflow was calculated by subtracting the [^3 H]outflow during an equivalent period of prestimulation from the values in samples collected during and after drug exposure. Inasmuch as the radiolabelled compounds were not separated and identified, the tritium collected in superfusate is referred to as either [^3 H]outflow or [^3 H]overflow, rather than as [^3 H]DA. [^3 H]Overflow primarily represents [^3 H]DA in the presence of nomifensine and pargyline in the superfusion buffer (Zumstein et al. 1981).
In these experiments, the striatal slices were superfused for 60 min with various concentrations of the analogues prior to nicotine (10 μM) exposure. Antagonist activity was evaluated by comparing the nicotine-evoked [^3 H]overflow in the absence and presence of the analogues. […] The relative order of potency of the classical and pyridine-N substituted nicotine analogues for inhibition of nicotine-evoked [^3 H]DA release from rat striatal slices is illustrated in FIG. 2 by a comparison of their IC50 values.
FIG. 2. IC50 values for N-substituted analogues of nicotine, nornicotine, and cotinine to inhibit nicotine-evoked [^3 H]DA release from rat striatal slices. Inhibition produced by the classical nicotinic inhibitors, mecamylamine (MEC) and DHBE was also determined. Slices were superfused with inhibitor for 60 min […] co-superfusion with 10 μM nicotine. Inhibition was determined by comparing [^3 H]DA release in the absence and presence of various concentrations of inhibitor. IC50 values were determined using the Logit-log plot (pseudo-Hill plot). […] IC50 for each animal was determined as the intercept of the linear regression.

Data set [2] relates to [^3 H]DA release from rat striatal slices. In words: [3H]DA release assay: compound-evoked (intrinsic agonist) release. Type of data set: cell-based. As for the experimental part:
as §2, §3, §4

For data set [3], the system named is rat striatal synaptosomes. The following applies: cited from earlier work.
Data set [4] relates to rat hypothalamic and corticotropin-releasing hormone secretion. Conditions: cited from earlier work.
The mark [5] stands for this setting: Table 3, 1 μM, mean ± S.E.M., rat striatal slices.
The mark [6] stands for this setting: Table 3, 10 μM, mean ± S.E.M., rat striatal slices.
Where [7] appears, read: Table 3, 100 μM, mean ± S.E.M., rat striatal slices.

Several values for one entry are separate records, joined by “and”; a condition that tells them apart may be missing. Equal values may be shown once. Entries after “also recorded” stand apart in the source; their conditions may differ. Read-outs that look alike come from different tables or passages of the source.

Data on nine compounds can be found in US5691365A, “Nicotinic receptor antagonists in the treatment of neuropharmacological disorders” (University of Kentucky Research Foundation, priority 1995, dated 1997).

One may read the pKa as the negative logarithm of the acid dissociation constant. In “physchem” (d2o, pKa of pyrrolidino-N (N'-amino) functionality, 1H-NMR), `C=CC[n+]1cccc([C@@H]2CCCN2C)c1` [NANI, S-N-allylnicotiniumiodide] showed a pKa of 6.4. The predominant ionization form entry in the data set “physchem” (physiological pH) was “exist predominantly in their unprotonated form at physiological pH”. Besides, the “nicotinic antagonist activity / inhibition of nicotine-evoked [3H]DA release (in words)” value in data set [1] was “Significant antagonist activity; also recorded: significantly lower potency and efficacy; also recorded: possessing antagonist activity; also recorded: preferred nicotinic receptor antagonist activity”. In addition, the “relative order of potency for inhibition of nicotine-evoked [3H]DA release (comparison of IC50 values)” value in data set [1] is on record as “NBNB=NPNI=NnNBI=NANI>NHENI”. Moreover, the “total [3H]overflow (effect on [3H]DA release)” value is given as 0.02 ± 0.02 in data set [2] (setting [5]), 0.07 ± 0.04 in data set [2] (setting [6]) and 0.08 ± 0.03 in data set [2] (setting [7]).

For `CCCCCCCC[n+]1cccc([C@@H]2CCCN2C)c1` [NONI, S-N-octylnicotinium iodide], the “nicotinic antagonist activity / inhibition of nicotine-evoked [3H]DA release (in words)” value in data set [1] was “Significant antagonist activity; also recorded: completely inhibited nicotine-evoked [^3 H]DA release; also recorded: Greatest antagonist potency; also recorded: preferred nicotinic receptor antagonist activity; also recorded: most efficacious and potent compound in the series; also recorded: completely blocked the effect of nicotine to evoke [^3 H]DA release”. Also, the “potency relative to mecamylamine and dihydro-β-erythroidine” value in data set [1] was “approximately half that of the classical nicotinic antagonists”. The “relative order of potency for inhibition of nicotine-evoked [3H]DA release (comparison of IC50 values)” value in data set [1] is “NONI>>DHBE=MEC”. Also, the “concentration for intrinsic agonist activity relative to that required to completely inhibit nicotine-evoked [3H]DA release” value in data set [1] (fold higher) stood at 10 fold. For the same compound, the “agonist activity relative to nicotine” value in data set [2] was “three-times the agonist activity of nicotine”. Also, the “total [3H]overflow (effect on [3H]DA release)” value in data set [2] (setting [5]) worked out at 0.03 ± 0.02; in data set [2] (setting [6]) it was 0.14 ± 0.14; in data set [2] (setting [7]), 16.4 ± 2.00. The “effect on [3H]DA release / intrinsic agonist activity (in words)” value in data set [2] (rat striatal slices, 1-100 μM) was “possessed intrinsic agonist activity at this high concentration; also recorded: did not possess agonist activity at concentrations which completely blocked nicotine-evoked [^3 H]DA release”; in data set [2] (rat striatal slices, 1-100 μM, listed as HONI), “evoked [^3 H]DA release and thus, possess intrinsic agonist activity at this concentration”.

Take `CCC[n+]1cccc([C@@H]2CCCN2C)c1` [NPNI, S-N-propyl nicotinium iodide]: the “nicotinic antagonist activity / inhibition of nicotine-evoked [3H]DA release (in words)” value in data set [1] is “Significant antagonist activity; also recorded: significantly lower potency and efficacy; also recorded: preferred nicotinic receptor antagonist activity”. The “relative order of potency for inhibition of nicotine-evoked [3H]DA release (comparison of IC50 values)” value in data set [1] is “NBNB=NPNI=NnNBI=NANI>NHENI”. In addition, the “total [3H]overflow (effect on [3H]DA release)” value in data set [2] (setting [5]) stood at 0.06 ± 0.01; in data set [2] (setting [6]) it was 0.03 ± 0.03; in data set [2] (setting [7]), 0.03 ± 0.03.

`CCCC[n+]1cccc([C@@H]2CCCN2C)c1` [NnBNI, S-N-nbutyl nicotinium iodine]: the “nicotinic antagonist activity / inhibition of nicotine-evoked [3H]DA release (in words)” value in data set [1] is “Significant antagonist activity; also recorded: significantly lower potency and efficacy; also recorded: preferred nicotinic receptor antagonist activity”. For the same compound, the “relative order of potency for inhibition of nicotine-evoked [3H]DA release (comparison of IC50 values)” value in data set [1] is “NBNB=NPNI=NnNBI=NANI>NHENI”. Besides, the “total [3H]overflow (effect on [3H]DA release)” value in data set [2] (setting [5]) is reported as 0.00 ± 0.00; in data set [2] (setting [6]), 0.01 ± 0.01; in data set [2] (setting [7]) it was 0.01 ± 0.01.

Consider `C[N+]1(C)CCC[C@H]1c1cccnc1` [PIPNMN, S-N'-methyl nicotinium iodide], for which, in data set [1], the “nicotinic antagonist activity / inhibition of nicotine-evoked [3H]DA release (in words)” value is “did not exhibit significant nicotinic antagonist activity over the concentration range tested”; the “relative order of potency for inhibition of nicotine-evoked [3H]DA release (comparison of IC50 values)” value was “NMNI=S-N-methylcotininium iodide (NMCI)=S-N'-methyl nicotinium iodide (PIPNMN)”; the “total [3H]overflow during cosuperfusion with 10 μM nicotine” value was 3.16 ± 1.46 and 2.98 ± 1.48 and 1.88 ± 0.77. The “total [3H]overflow (effect on [3H]DA release)” value in data set [2] (setting [5]) turned out to be 0.03 ± 0.03. In addition, the “total [3H]overflow (effect on [3H]DA release)” value in data set [2] (setting [6]) turned out to be 0.01 ± 0.01. In addition, the “total [3H]overflow (effect on [3H]DA release)” value in data set [2] (setting [7]) was 0.05 ± 0.02.

As for `O=c1cccc2n1C[C@@H]1CNC[C@H]2C1` [S(-)cytisine, reference compound], the “effect on [3H]dopamine release from rat striatal synaptosomes” value in data set [3] is recorded as “lesser effect of cytisine compared to nicotine in evoking dopamine release from rat striatal synaptosomes”. Moreover, in data set [2], the “effect on [3H]DA release / intrinsic agonist activity (in words)” value is reported as “only marginally released dopamine from the striatal slice”; the “total [3H]overflow (effect on [3H]DA release)” value is 0.67 ± 0.26 and 0.85 ± 0.38 and 1.13 ± 0.46. Moreover, the Emax in data set [2] (Rattus norvegicus, read-out: evoked [3H]DA release relative to nicotine) was roughly 20%.

Turning to `CN1[C@@H]2CC[C@H]1C[C@@H](OC(=O)C(CO)c1ccccc1)C2` (stereo partly shown) [atropine], the “effect on IR-rCRH secretion (in words)” value in data set [4] is “This effect was antagonized by the simultaneous presence of atropine and hexamethonium”.

As to `C[N+](C)(C)CCOC(N)=O` [carbachol], the “effect on IR-rCRH secretion (in words)” value in data set [4] (in vitro, p less than 0.05 for antagonists of acetylcholine) is “stimulated IR-rCRH secretion in a dose-dependent fashion”.

Consider `C[N+](C)(C)CCCCCC[N+](C)(C)C` [hexamethonium], for which, in data set [4], the “effect on IR-rCRH secretion (in words)” value was “This effect was antagonized by the simultaneous presence of atropine and hexamethonium”.
